The test system of assay [1] is P. berghei luc sporozoites (Pb-Luc). Put plainly: Prophylaxis assay, single IV dose 6 hours before Pb-Luc sporozoite infection. It is filed as in vivo, mice. How it is done:
(§1) TL5-135 was dissolved or resuspended in a suspending vehicle consisting of 30% DMSO, 1% methylcellulose, 0.5% TWEEN-80, and 68.5% ultrapure water. GNF179 was resuspended in 30% DMSO, 30% PEG400, 5% TWEEN-80, 35% saline, and administered intravenously.
(§2) For prophylaxis assays, a single dose of […] was administrated 6 hours before infection. For therapeutic assays, in a 4-day's Peters test, 4 doses (each 15 mg/kg) were administrated 6, 18, 30, and 42 hours post infection.
(§3) The antimalarial activity was measured as a percent reduction in parasitemia from day one until day twelve post-infection.
Infection was initiated using 100,000 P. berghei luc sporozoites (Pb-Luc). The drugs were administered IV at 50 mg/kg, single dose 6 hours prior. I: infected, UI: uninfected.
(§4) Groups of 5 mice were infected with 100,000 Pb-Luc sporozoites by IV injection. Prophylactic (single dose of 50 mg/kg through IV injection, 6 hour before infection) and therapeutic (4-day Peters test, 4 doses of 15 mg/kg each time were administrated post-infection at 6, 18, 30, and 42 hours post infection (hpi) and the activity of the compounds was evaluated. See FIG. 8A. The parasitemia was estimated after flow cytometric enumeration of rodent malaria parasite Pb-Luc-infected red blood cells (RBS) stained with SYBR Green I, from day 3 until 20.
(§5) TL5-135 and GNF179 antimalarial compounds were tested against Pb-Luc sporozoites. Prophylactic activity (single dose of 15 mg/kg through an IV injection, 6 hours before infection) and therapeutic activity (4-day Peters test, 4 doses of 15 mg/kg each time was administrated at 6, 18, 30, and 42 hpi of the TL5-135 antimalarial compound was evaluated. As before, groups of five mice were infected with 100,000 Pb-Luc sporozoites by IV injection. The parasitemia was estimated after flow cytometric enumeration of rodent malaria parasite Pb-Luc-infected red blood cells (RBS) stained with SYBR Green I, from day 3 until day 20. See FIG. 8B.

Another assay concerns P. berghei ANKA. Put plainly: Treatment of established P. berghei ANKA luciferase infection in mice, IVIS imaging. As to conditions: 50 mg/kg p.o. once daily for 4 days from 72 hours post-infection; imaging day 7. It is filed as in vivo. As for the experimental part: Mice infected with P. berghei ANKA (10^3 iRBC) expressing luciferase were treated with 50 mg/kg TL5-135 or chloroquine orally once daily 72 hours post-infection for 4 days. Imaging was done 7 days after infection following a 150 mg/kg D-luciferin injection with an IVIS.

In another assay the test system is Pb-Luc sporozoites. Put plainly: Therapeutic assay, 4-day Peters test against Pb-Luc sporozoites. The format is in vivo, mice. As to conditions: therapeutic, 4 doses of 15 mg/kg. As for the experimental part: as §1, §2, §3
However, the mice treated with TL5-135 as a therapeutic had about 2.4% parasitemia after 12 days post-infection (all negative control mice died between days 11-13). The parasitemia on day 21 (21 days post-infection) for the group of mice was 35%.
as §4, §5

SMILES strings stand for the structures. “Also recorded” adds a separate entry of the source.

One molecule from patent US20250195508A1, “COMPOUNDS AND COMPOSITIONS FOR ANITMALARIAL THERAPEUTIC AND PROPHYLACTIC USE” (UNIVERSITY OF CENTRAL FLORIDA RESEARCH FOUNDATION, INC., priority 2022, published 2025) can be followed below.

In the case of `CCN1CCN(Cc2ccc(NC(=O)c3cc(Cl)cc(NC(=O)c4cncc(-c5cccs5)c4)c3)cc2C(F)(F)F)CC1` [TL5-135], the “Condition of mice after prophylactic treatment” value in assay [1] (single dose 15 mg/kg 6 hours before infection, after 22 days) was “still healthy and alive”. For the same molecule, the Prophylactic activity result in assay [1] (single dose 50 mg/kg IV 6 hours prior to infection with 100,000 Pb-Luc sporozoites) is reported as “has prophylactic activity; also recorded: prevent infection”. Also, in the assay with P. berghei ANKA, the “Effect on established P. berghei infection” value is on record as “eliminates established P. berghei ANKA infection; also recorded: eliminate established Plasmodium. berghei infections in mice”. In the assay on Pb-Luc sporozoites (12 days post-infection), the “Parasitemia 12 days post-infection” value is “about 2.4%”. The “Parasitemia on day 21” value with Pb-Luc sporozoites (21 days post-infection) is reported as 35%.
